Consider 20 molecules from patent US20260347355A1, “COMPOUNDS” (Hoffmann-La Roche Inc., priority 2023, published 2026).

Data set [1] concerns the target T1, NLRP3 (Homo sapiens, UniProt Q96P20). Briefly: Human whole blood IL-1β release assay (LPS, nigericin; AlphaLISA). On the set-up: Human whole blood in Li-heparin tubes was obtained from healthy donors from a volunteer donor panel; from tissue; host or cells: human whole blood from healthy volunteer donors. Conditions: 1 μg/ml LPS, 10 μM nigericin, 3 h compound pre-incubation. In kind it is cell-based. How it is done: Human Whole Blood IL-1β Release Assay
For systemic delivery, the ability to inhibit NLRP3 when the compounds are present within the bloodstream is of great importance. For this reason, the NLRP3 inhibitory activity of a number of compounds in human whole blood was investigated in accordance with the following protocol.
Human whole blood in Li-heparin tubes was obtained from healthy donors from a volunteer donor panel.
(§1) Incubate for 3 hours at 37 °C, 5% CO2
Add 10 μl nigericin (Sigma #N7143) (10 μM FAC) to all wells
(§2) Incubate for 1 hr at 37 °C, 5% CO2
At the end of the incubation period, spin plates at 300×g for 5 mins to pellet cells and remove 20 μl of supernatant and add to 96-well v-bottom plates for IL-1β analysis (note: these plates containing the supernatants can be stored at −80 °C to be analysed at a later date)
IL-1β was measured according to the manufacturer protocol (Perkin Elmer-AlphaLisa IL-1 Kit AL220F-5000)
(§3) IC50 data is fitted to a non-linear regression equation (log inhibitor vs response-variable slope 4-parameters)
Background: Bead proximity is the source of the signal in Alpha formats.

The target of data set [2] is T1, NLRP3. In words: THP-1 cells pyroptosis assay (LPS primed, nigericin stimulated, resazurin readout). In kind it is cell-based. On the set-up: endogenous in cells; host or cells: THP-1 cells (ATCC TIB-202). Conditions: THP-1 pyroptosis Assay IC50, THP-1 cells, 1 μg/ml LPS, 5 μM nigericin, 3 h compound pre-incubation. How it is done: Therefore, it is anticipated that inhibitors of NLRP3 will block pyroptosis, as well as the release of pro-inflammatory cytokines (e.g. IL-1β) from the cell.
THP-1 Cells: Culture and Preparation
The cells were routinely passaged and grown to confluency (~10^6cells/ml). On the day of the experiment, THP-1 cells were harvested and resuspended into RPMI medium (without FBS). […] To this diluted cell solution was added LPS (Sigma #L4524) to give a 1 μg/ml Final Assay Concentration (FAC). 40 μl of the final preparation was aliquoted into each well of a 96-well plate. The plate thus prepared was used for compound screening.
THP-1 Cells Pyroptosis Assay
The following method step-by-step assay was followed for compound screening.
as §1
Add 5 μl nigericin (Sigma #N7143) (FAC 5 μM) to all wells
as §2
At the end of the incubation period, spin plates at 300×g for 3 mins and remove supernatant
Then add 50 μl of resazurin (Sigma #R7017) (FAC 100 μM resazurin in RPMI medium without FBS) and incubate plates for a further 1-2 hours at 37 °C and 5% CO2
as §3
(In general: Resazurin is reduced to fluorescent resorufin, in cell work by metabolically active cells.)

Data set [3] addresses T2, human ether-i-go-go-related gene (hERG) cardiac potassium channel (Homo sapiens, UniProt Q12809).
T2 construct: whole-cell automated patch clamp, SynchroPatch 384, 35-37 °C
Briefly: hERG screening assay (automated patch clamp, CHO crelox hERG cells). In kind it is cell-based. Particulars: SynchroPatch 384, 35-37 °C, 0.1 Hz, read-out: hERG inhibition IC20. An excerpt: In the drug development process of small molecules, one of the most frequent adverse side effects, leading to the failure of drugs, is the cardiac arrhythmias. Such failure is often related to the capacity of the drug to inhibit the human ether-i-go-go-related gene (hERG) cardiac potassium channel. Having no or low inhibition of the hERG cardiac potassium channel is therefore considered as beneficial.
The CHO crelox hERG cell line (ATCC reference Nr. PTA-6812, female Chinese hamster cells) was generated and validated at Roche. Ready-to-use frozen instant CHO-hERG cells were cryopreserved at Evotec (Germany) and used directly in the experiments.
The extracellular solution contains (in mM): NaCl 150; KCl 4; CaCl2 1; MgCl2 1; HEPES 10; pH 7.2-7.4 with NaOH, osmolarity 290-330 mOsm. […]
The effects of a compound on hERG K+-currents parameters will be evaluated at 2 concentrations in at least 4 cells.
The hERG test is performed using automated patch clamp system SynchroPatch® 384 (Nanion Technologies GmbH, Germany). K+ currents are measured with the patch-voltage-clamp technique in the whole-cell configuration at 35-37 °C. […]
The amplitudes of IKhERG were recorded in each concentration of drug and they were compared to the vehicle control values (taken as 100%) to define fractional blocks. […]
A general note: hERG is a cardiac potassium channel; its block is linked to QT prolongation.

Data set [4] addresses T1, NLRP3. On the set-up: THP-1 cells (ATCC #TIB-202) were grown in RPMI; endogenous in cells; host or cells: THP-1 cells (ATCC TIB-202). Conditions: cited from earlier work.
The test system of another data set is NLRP1. Conditions: cited from earlier work.
A further data set deals with NLRC4. Particulars: cited from earlier work.
A further data set concerns CAPS. Particulars: biologic agents that target IL-1; cited from earlier work.

T1 sequence (Q96P20 whole entry): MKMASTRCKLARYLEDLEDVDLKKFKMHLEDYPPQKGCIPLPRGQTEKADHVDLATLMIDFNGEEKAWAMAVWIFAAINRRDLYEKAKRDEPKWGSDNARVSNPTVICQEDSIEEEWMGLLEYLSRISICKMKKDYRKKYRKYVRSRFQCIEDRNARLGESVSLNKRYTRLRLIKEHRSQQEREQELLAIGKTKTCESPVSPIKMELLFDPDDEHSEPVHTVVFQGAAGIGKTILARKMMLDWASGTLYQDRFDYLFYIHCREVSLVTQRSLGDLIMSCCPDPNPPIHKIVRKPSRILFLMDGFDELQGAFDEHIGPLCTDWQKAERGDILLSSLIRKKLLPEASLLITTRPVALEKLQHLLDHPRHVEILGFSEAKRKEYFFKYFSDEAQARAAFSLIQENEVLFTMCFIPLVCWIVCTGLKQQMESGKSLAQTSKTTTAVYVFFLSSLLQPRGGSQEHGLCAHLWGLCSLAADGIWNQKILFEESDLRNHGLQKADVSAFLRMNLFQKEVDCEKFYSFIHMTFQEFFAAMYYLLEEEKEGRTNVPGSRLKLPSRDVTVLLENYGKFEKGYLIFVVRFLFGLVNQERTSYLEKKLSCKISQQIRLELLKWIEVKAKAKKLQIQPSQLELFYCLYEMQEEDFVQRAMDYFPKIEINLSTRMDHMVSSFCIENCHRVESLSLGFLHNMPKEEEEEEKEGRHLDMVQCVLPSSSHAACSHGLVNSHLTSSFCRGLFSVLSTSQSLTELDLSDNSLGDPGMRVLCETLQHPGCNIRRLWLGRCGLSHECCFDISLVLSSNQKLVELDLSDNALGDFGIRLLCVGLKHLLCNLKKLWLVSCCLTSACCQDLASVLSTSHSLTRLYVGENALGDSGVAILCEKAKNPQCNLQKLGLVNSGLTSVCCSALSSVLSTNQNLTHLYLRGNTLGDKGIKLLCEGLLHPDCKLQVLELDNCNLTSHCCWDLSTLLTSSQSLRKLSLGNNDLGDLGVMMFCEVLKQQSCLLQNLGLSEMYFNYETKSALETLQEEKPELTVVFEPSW
T2 sequence (Q12809 whole entry): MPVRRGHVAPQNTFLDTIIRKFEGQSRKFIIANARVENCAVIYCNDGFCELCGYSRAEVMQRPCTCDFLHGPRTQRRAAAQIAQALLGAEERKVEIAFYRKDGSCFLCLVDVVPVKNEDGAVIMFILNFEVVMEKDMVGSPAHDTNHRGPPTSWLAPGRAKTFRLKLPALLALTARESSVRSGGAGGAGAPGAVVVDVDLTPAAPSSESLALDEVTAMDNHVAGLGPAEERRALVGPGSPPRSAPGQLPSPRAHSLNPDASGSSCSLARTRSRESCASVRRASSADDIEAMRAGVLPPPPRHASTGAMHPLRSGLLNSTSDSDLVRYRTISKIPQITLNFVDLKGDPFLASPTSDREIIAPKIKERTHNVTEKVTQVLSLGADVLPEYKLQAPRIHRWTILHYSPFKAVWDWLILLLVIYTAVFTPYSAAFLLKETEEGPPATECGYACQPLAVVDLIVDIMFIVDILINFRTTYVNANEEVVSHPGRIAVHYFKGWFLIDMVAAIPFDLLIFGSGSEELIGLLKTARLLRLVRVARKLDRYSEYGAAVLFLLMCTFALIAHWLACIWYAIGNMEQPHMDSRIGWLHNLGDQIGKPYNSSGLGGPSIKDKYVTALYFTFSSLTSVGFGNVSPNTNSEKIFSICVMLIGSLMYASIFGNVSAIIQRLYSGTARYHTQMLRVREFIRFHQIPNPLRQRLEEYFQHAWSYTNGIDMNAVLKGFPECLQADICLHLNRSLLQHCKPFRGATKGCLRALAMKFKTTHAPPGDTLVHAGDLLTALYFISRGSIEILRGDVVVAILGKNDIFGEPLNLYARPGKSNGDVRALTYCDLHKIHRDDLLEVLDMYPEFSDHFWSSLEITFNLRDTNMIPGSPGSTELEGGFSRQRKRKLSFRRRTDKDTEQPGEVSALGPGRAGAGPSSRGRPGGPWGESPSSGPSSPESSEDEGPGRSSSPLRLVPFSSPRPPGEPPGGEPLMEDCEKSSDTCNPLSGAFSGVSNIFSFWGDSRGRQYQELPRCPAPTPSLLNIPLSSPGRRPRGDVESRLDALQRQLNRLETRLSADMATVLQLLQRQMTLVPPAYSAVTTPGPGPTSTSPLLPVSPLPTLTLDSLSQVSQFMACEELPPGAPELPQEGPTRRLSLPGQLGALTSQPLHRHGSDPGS

One may read the IC50 as the concentration needed to halve the response being measured. A higher IC50 goes with weaker potency in that assay. For `O[C@@H]1CCCC[C@H]1Nc1nnc(-c2ccc3cc[nH]c3c2)c2ccncc12` (racemic) [Example 3, rac-(1R,2R)-2-[[1-(1H-Indol-6-yl)pyrido[3,4-d]pyridazin-4-yl]amino]cyclohexanol], the 50% inhibitory concentration (IC50) against NLRP3 [1] was determined as 108 nM; against NLRP3 [2], 99 nM. For `Oc1c(-c2nnc(NCC3CCOC3)c3cnccc23)ccc2c1CCO2` (racemic) [Example 5, 5-[4-[[rac-(3S)-Tetrahydrofuran-3-yl]methylamino]pyrido[3,4-d]pyridazin-1-yl]-2,3-dihydrobenzofuran-4-ol] the same measures were 37 nM and 38 nM.

Broadly, the IC20 is the concentration at which the effect reaches the 20% level. On to `Oc1c(-c2nnc(N[C@H]3CCCC[C@@H]3O)c3cnccc23)ccc2c1CCO2` (relative stereo) [Example 2B, 5-[4-[[rel-(1S,2S)-2-Hydroxycyclohexyl]amino]pyrido[3,4-d]pyridazin-1-yl]-2,3-dihydrobenzofuran-4-ol], for which the 20% effect concentration (IC20) in data set [3] was above 10000 nM. For the molecule `Fc1c[nH]c2cc(-c3nnc(NCC4CCOC4)c4cnccc34)ccc12` (single isomer, unassigned) [Example 4A], it took 134 nM to reach half-maximal inhibition against NLRP3 [2] (IC50).

With `Fc1c[nH]c2cc(-c3nnc(NCC4CCOC4)c4cnccc34)ccc12` (single isomer, unassigned) [Example 4B], the IC50 on NLRP3 [2] came to 211 nM. For `Oc1c(-c2nnc(NCC3CCOC3)c3cnccc23)ccc2c1CCO2` (single isomer, unassigned) [Example 5A], the IC50 is 32 nM on NLRP3 [1] and 29 nM at NLRP3 [2]. For `Oc1c(-c2nnc(NCC3CCOC3)c3cnccc23)ccc2c1CCO2` (single isomer, unassigned) [Example 5B] the same measures were 36 nM and 64 nM. For the molecule `Oc1c(-c2nnc(NCC3CCCO3)c3cnccc23)ccc2c1CCO2` (single isomer, unassigned) [Example 6A], the half-maximal inhibitory concentration (IC50) at NLRP3 [1] amounted to 47 nM; against NLRP3 [2], 58 nM. `Oc1c(-c2nnc(NCC3CCCO3)c3cnccc23)ccc2c1CCO2` (single isomer, unassigned) [Example 6B]: the IC50 worked out at 59 nM at NLRP3 [1] and 63 nM at NLRP3 [2]. For `O=[N+]([O-])C=Cc1ccc2c(c1)OCO2` [3,4-methylenedioxy-β-nitrostyrene], at NLRP3 [4], the “NLRP3 inhibition, potency” value is given as “limited potency” and the “NLRP3 inhibition, specificity” value is listed as “nonspecific”. `COCc1cc2c(c(O)c1-c1nnc(N[C@@H]3CCCC[C@H]3O)c3cnccc13)CCO2` [Example 8, 5-[4-[[(1R,2R)-2-Hydroxycyclohexyl]amino]pyrido[3,4-d]pyridazin-1-yl]-6-(methoxymethyl)-2,3-dihydrobenzofuran-4-ol] gave a concentration for half-maximal inhibition (IC50) against NLRP3 [2] of 21 nM. That is a double-digit nanomolar value. For `Oc1c(-c2nnc(N[C@H]3CC[C@H](O)CC3)c3cnccc23)ccc2c1CCO2` [Example 9, trans-5-[4-[(4-Hydroxycyclohexyl)amino]pyrido[3,4-d]pyridazin-1-yl]-2,3-dihydrobenzofuran-4-ol], the IC50 at NLRP3 [1] came to 43 nM; on NLRP3 [2], 56 nM. Regarding `Oc1c(-c2nnc(N[C@H]3CC[C@@H](O)CC3)c3cnccc23)ccc2c1CCO2` [Example 11, cis-5-[4-[(4-Hydroxycyclohexyl)amino]pyrido[3,4-d]pyridazin-1-yl]-2,3-dihydrobenzofuran-4-ol], the IC50 on NLRP3 [1] came out at 51 nM; against NLRP3 [2] it was 57 nM. For the molecule `Oc1c(-c2nnc(N[C@@H]3CCOC[C@@H]3O)c3cnccc23)ccc2c1CCO2` [Example 15, 5-[4-[[(3R,4R)-3-Hydroxytetrahydropyran-4-yl]amino]pyrido[3,4-d]pyridazin-1-yl]-2,3-dihydrobenzofuran-4-ol], the IC20 in data set [3] is above 10000 nM. As for `COc1ccc(Cl)cc1C(=O)NCCc1ccc(S(=O)(=O)NC(=O)NC2CCCCC2)cc1` [Glyburide], in the data set with NLRP1, the “inhibition of IL-1β production in response to the activation of NLRP1” value is “not NLRC4 or NLRP1”. Besides, the “inhibition of IL-1β production in response to the activation of NLRC4” value with NLRC4 is on record as “not NLRC4”. As to `C[S+](C)[O-]` [dimethyl sulfoxide (DMSO), dimethyl sulfoxide], at NLRP3 [4], the “NLRP3 inhibition, potency” value is reported as “limited potency” and the “NLRP3 inhibition, specificity” value is given as “nonspecific”. For the molecule `C=C1C(=O)O[C@@H]2[C@H]3O[C@]3(C)CC/C=C(\C)CC[C@@H]12` [parthenolide], on NLRP3 [4], the “NLRP3 inhibition, potency” value is “limited potency” and the “NLRP3 inhibition, specificity” value is “nonspecific”. For the molecule “anakinra: recombinant IL-I receptor antagonist”, in the data set with CAPS, the “success in the treatment of CAPS” value is “proven successful in the treatment of CAPS”.

On to “canakinumab: neutralizing IL-1β antibody”, for which the “success in the treatment of CAPS” value with CAPS is “proven successful in the treatment of CAPS”. For the molecule rilonacept, the “success in the treatment of CAPS” value in the data set on CAPS is “proven successful in the treatment of CAPS”.
